Data published in patent US9499550B2 (BRISTOL-MYERS SQUIBB COMPANY, priority 2012, dated 2016).
Read-outs that look alike come from different tables or passages of the source.

Tests used:
[1] = test system: HCV genotype 1a (H77 strain) replicon in HUH-7 cells; experiment: HCV replicon luciferase reporter assay, genotype 1a; format: cell-based; details: Hepatitis C virus, Huh-7, 72 h, HCV genotype 1a replicon luciferase, 3 days incubation, read-out: LE_1a (EC50, range)
How it was run: (§1)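 Replicon inhibition for both genotypes was measured as Renilla luciferase signal (EnduRen, 7.5 μM final, 2 h) after 3-day, 37° C exposure of replicon-bearing HUH-7 cells in 4% FCS DMEM, 0.5% DMSO. The 1b construct carries S1179I; the 1a H77 construct carries P1496L and S2204I. Twenty-point, 3-fold dilutions were fitted four-parametrically for EC50, and CC50 was taken from multiplexed Cell Titer-Blue.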

[2] = test system: HCV genotype 1b (Con1) replicon in HUH-7 cells; experiment: HCV replicon luciferase reporter assay, genotype 1b; format: cell-based; details: Hepatitis C virus, Huh-7, 72 h, HCV genotype 1b replicon luciferase, 3 days incubation, read-out: LE_1b (EC50, range)
How it was run: as §1

SMILES | EC50 [1] | EC50 [2] | EC50 ([1]; GETYPE1A) | EC50 ([2]; GETYPE1B)
CC[C@@H]1C[C@H](C)CC/C=C\[C@@H]2C[C@@]2(C(=O)NS(=O)(=O)C2(C)CC2)NC(=O)[C@@H]2C[C@@H](Oc3ncc(OC)c4ccc(F)cc34)CN2C(=O)[C@H]1NC(=O)N1CCN(C)CC1 [Compound 4341, (2R,6S,7R,9R,13aS,14aR,16aS,Z)-7-ethyl-2-((7-fluoro-4-methoxyisoquinolin-1-yl)oxy)-9-methyl-N-((1-methylcyclopropyl)sulfonyl)-6-(4-methylpiperazine-1-carboxamido)-5,16-dioxo-1,2,3,5,6,7,8,9,10,11,13a,14,14a,15,16,16a-hexadecahydrocyclopropa[e]pyrrolo[1,2-a][1,4]diazacyclopentadecine-14a-carboxamide] | 1.01 to 5 nM | 1.01 to 5 nM |  | 
CC[C@@H]1C[C@H](C)CC/C=C\[C@@H]2C[C@@]2(C(=O)NS(=O)(=O)C2CC2)NC(=O)[C@@H]2C[C@@H](Oc3ncc(C(N)=O)c4cc(OC)ccc34)CN2C(=O)[C@H]1NC(=O)OC(C)(C)C [Compound 4342, tert-butyl ((2R,6S,7R,9R,13aS,14aR,16aS,Z)-2-((4-carbamoyl-6-methoxyisoquinolin-1-yl)oxy)-14a-((cyclopropylsulfonyl)carbamoyl)-7-ethyl-9-methyl-5,16-dioxo-1,2,3,5,6,7,8,9,10,11,13a,14,14a,15,16,16a-hexadecahydrocyclopropa[e]pyrrolo[1,2-a][1,4]diazacyclopentadecin-6-yl)carbamate] | 5.01 to 35 nM | 35 to 620 nM |  | 
CC[C@@H]1C[C@H](C)CC/C=C\[C@@H]2C[C@@]2(C(=O)NS(=O)(=O)C2(C)CC2)NC(=O)[C@@H]2C[C@@H](Oc3ncc(C(N)=O)c4cc(OC)ccc34)CN2C(=O)[C@H]1NC(=O)OC(C)(C)C [Compound 4343, tert-butyl ((2R,6S,7R,9R,13aS,14aR,16aS,Z)-2-((4-carbamoyl-6-methoxyisoquinolin-1-yl)oxy)-7-ethyl-9-methyl-14a-(((1-methylcyclopropyl)sulfonyl)carbamoyl)-5,16-dioxo-1,2,3,5,6,7,8,9,10,11,13a,14,14a,15,16,16a-hexadecahydrocyclopropa[e]pyrrolo[1,2-a][1,4]diazacyclopentadecin-6-yl)carbamate] | 5.01 to 35 nM | 5.01 to 35 nM |  | 
CC[C@@H]1C[C@H](C)CC/C=C\[C@@H]2C[C@@]2(C(=O)NS(=O)(=O)C2(C)CC2)NC(=O)[C@@H]2C[C@@H](Oc3nccc4cc(OC)c(F)cc34)CN2C(=O)[C@H]1NC(=O)N1CCC(F)(F)CC1 [Compound 4344, (2R,6S,7R,9R,13aS,14aR,16aS,Z)-6-(4,4-difluoropiperidine-1-carboxamido)-7-ethyl-2-((7-fluoro-6-methoxyisoquinolin-1-yl)oxy)-9-methyl-N-((1-methylcyclopropyl)sulfonyl)-5,16-dioxo-1,2,3,5,6,7,8,9,10,11,13a,14,14a,15,16,16a-hexadecahydrocyclopropa[e]pyrrolo[1,2-a][1,4]diazacyclopentadecine-14a-carboxamide] | 1.01 to 5 nM | 1.01 to 5 nM |  | 
CC[C@@H]1C[C@H](C)CC/C=C\[C@@H]2C[C@@]2(C(=O)NS(=O)(=O)C2CC2)NC(=O)[C@@H]2C[C@@H](Oc3ncc(C(N)=O)c4cc(OC)ccc34)CN2C(=O)[C@H]1NC(=O)OC(C)(C)C(F)(F)F [Compound 4345] |  |  | 5.01 to 35 nM | 35 to 620 nM
CCOc1ccc2nc(C(F)(F)F)c(O[C@@H]3C[C@H]4C(=O)N[C@]5(C(=O)NS(=O)(=O)C6(C)CC6)C[C@H]5/C=C\CC[C@@H](C)C[C@@H](C)[C@H](NC(=O)OC(C)(C)C)C(=O)N4C3)nc2c1 [Compound 4346, tert-butyl ((2R,6S,7R,9R,13aS,14aR,16aS,Z)-2-((7-ethoxy-3-(trifluoromethyl)quinoxalin-2-yl)oxy)-7,9-dimethyl-14a-(((1-methylcyclopropyl)sulfonyl)carbamoyl)-5,16-dioxo-1,2,3,5,6,7,8,9,10,11,13a,14,14a,15,16,16a-hexadecahydrocyclopropa[e]pyrrolo[1,2-a][1,4]diazacyclopentadecin-6-yl)carbamate] | 0.51 to 1 nM | 0.1 to 0.5 nM |  | 
